Source: US20120095028A1, “3-OXA-7-AZABICYCLO[3.3.1]NONANES” (Pfizer Inc., priority 2009, published 2012)
pEC50: −log10 of the molar value. Where “and” joins values, the source holds several entries; their conditions need not be identical. Equal entries are not always repeated.

Target: T1, human GPR119 (Homo sapiens, UniProt Q8TDV5)
T1 construct: host or cells: HEK293-CRE-β-lactamase cells expressing hGPR119
T1 sequence (Q8TDV5 1-335): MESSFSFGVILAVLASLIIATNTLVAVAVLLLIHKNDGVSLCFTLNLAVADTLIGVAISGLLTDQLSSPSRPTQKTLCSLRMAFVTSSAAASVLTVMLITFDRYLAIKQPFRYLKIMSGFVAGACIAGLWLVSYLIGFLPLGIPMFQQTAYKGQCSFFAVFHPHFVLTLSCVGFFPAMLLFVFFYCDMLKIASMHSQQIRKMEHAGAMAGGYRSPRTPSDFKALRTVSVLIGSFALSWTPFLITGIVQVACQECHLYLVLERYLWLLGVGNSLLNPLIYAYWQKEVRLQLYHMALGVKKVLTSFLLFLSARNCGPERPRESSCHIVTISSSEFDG
Test: GPR119 agonist cell-based hGPR119 HEK293-CRE β-lactamase reporter assay
Settings: one value per run; for pEC50: hGPR119-HEK-CRE-β-lactamase cells, 16 hours incubation; for Emax: read-out: Intrinsic Activity*
Method: The assay for GPR119 agonists utilizes a cell-based (hGPR119 HEK293-CRE β-lactamase) reporter construct where agonist activation of human GPR119 is coupled to β-lactamase production via a cyclic AMP response element (CRE). GPR119 activity is then measured utilizing a FRET-enabled R-lactamase substrate, CCF4-AM (Live Blazer FRET-B/G Loading kit, Invitrogen cat #K1027). Specifically, hGPR119-HEK-CRE-β-lactamase cells (Invitrogen 2.5×10^7/mL) were removed from liquid nitrogen storage, and diluted in plating medium (Dulbecco's modified Eagle medium high glucose (DMEM; Gibco Cat #11995-065), 10% heat inactivated fetal bovine serum (HIFBS; Sigma Cat #F4135), 1× MEM Nonessential amino acids (Gibco Cat #15630-080), 25 mM HEPES pH 7.0 (Gibco Cat #15630-080), 200 nM potassium clavulanate (Sigma Cat #P3494). The cell concentration was adjusted using cell plating medium and 50 μL of this cell suspension (12.5×10^4 viablecells) was added into each well of a black, clear bottom, poly-d-lysine coated 384-well plate (Greiner Bio-One cat #781946) and incubated at 37° C. in a humidified environment containing 5% carbon dioxide. After 4 hours the plating medium was removed and replaced with 40 μL of assay medium (Assay medium is plating medium without potassium clavulanate and HIFBS). Varying concentrations of each compound to be tested was then added in a volume of 10 uL (final DMSO≦0.5%) and the cells were incubated for 16 hours at 37° C. in a humidified environment containing 5% carbon dioxide. Plates were removed from the incubator and allowed to equilibrate to room temperature for approximately 15 minutes. 10 uL of 6× CCF4/AM working dye solution (prepared according to instructions in the Live Blazer FRET-B/G Loading kit, Invitrogen cat #K1027) was added per well and incubated at room temperature for 2 hours in the dark. Fluorescence was measured on an EnVision fluorimetric plate reader, excitation 405 nm, emission 460 nm/535 nm. EC50 determinations were made from agonist-response curves analyzed with a curve fitting program using a 4-parameter logistic dose-response equation.

[1] = percent of maximal activity relative to standard GPR119 agonist at a final concentration of 10 μM

Row | pEC50 | Intrinsic Activity* [1] | Emax [1] [%] | SMILES
1 | 7.98 and 7.89 and 7.63 | 88% and 87% | 90 | CC(C)OC(=O)N1C[C@H]2COC[C@@H](C1)[C@@H]2Oc1ncnc2c1CCN2c1ccc(S(C)(=O)=O)cc1F [Example 1, Isopropyl 9-syn-({7-[2-fluoro-4-(methylsulfonyl)phenyl]-6,7-dihydro-5H-pyrrolo[2,3-d]pyrimidin-4-yl}oxy)-3-oxa-7-azabicyclo[3.3.1]nonane-7-carboxylate]
2 | 7.62 | – | 93 | CC(C)OC(=O)N1C[C@H]2COC[C@@H](C1)[C@H]2Oc1ncnc2c1CCN2c1ccc(S(C)(=O)=O)cc1F [Example 2, Isopropyl 9-anti-({7-[2-fluoro-4-(methylsulfonyl)phenyl]-6,7-dihydro-5H-pyrrolo[2,3-d]pyrimidin-4-yl}oxy)-3-oxa-7-azabicyclo[3.3.1]nonane-7-carboxylate]
